From patent US20230151342A1, “ZINC FINGER DEGRADATION DOMAINS” (THE BROAD INSTITUTE, INC, priority 2020, published 2023)
Where no end group is shown, it is not given here.

Assays:
K562-CD19 cells = experiment: Jurkat CAR functional assay: CD69 expression after co-culture with K562-CD19 cells; format: cell-based
Source text: FIG. 12A-12D—ON-switch split CARs only function in the presence of lenalidomide. (FIG. 12A) Schematic of split CAR constructs. Each split CAR is composed of the indicated antigen-binding part A and the ITAM-containing part B. The lenalidomide-induced dimerization module is encoded by zinc fingers from IKZF3 or the engineered 913 zinc finger and a fragment of CRBN (CRBNΔ3). The intracellular domains of each split CAR part A is protected from CRL4^CRBN ubiquitination by K>R “K0” substitutions. The control second generation CAR FMC63-CD28-CD3z was also used. sCAR, split CAR. […] (FIG. 12C) Primary T cells were infected with lentiviruses encoding parts A and B of split CAR 913. Untransduced cells and cells expressing components A only, B only, and both A+B were purified by FACS. Cytotoxic activity of each sorted cell population was measured after overnight co-culture with NALM6 target cells and lenalidomide or vehicle control at the indicated effector:target ratios. The maximum plasma concentration for once daily 25 mg lenalidomide in multiple myeloma patients is indicated. (FIG. 12D) Scatterplots showing the production of cytokines after co-culture (1:1 CAR T:NALM6 ratio) in the presence of 1000 nM lenalidomide versus vehicle control. Experiments were performed in triplicate and error bars indicate standard deviation.
FIG. 24 Validation of lenalidomide-OFF-switch control of CAR T cell activation, as assessed by expression of the early activation marker CD69, in Jurkat T cells expressing various super-degron tagged chimeric antigen receptors. Regulation of CAR T cell activation with the indicated super-degrons, in comparison to the previously described degron d913. […]
Thalidomide analogs control degradable CAR T cell activation and effector functions in vitro and in vivo. […] Then cytokine production was analyzed in response to antigen stimulation.

NALM6 target cells [1] = experiment: Cellular cytotoxicity assay of primary human CAR-T cells; format: cell-based
Source text: (§1) To evaluate whether effector functions of primary T cells could be gated by lenalidomide, primary sCAR 913 T cells were generated. As the two split CAR components are delivered by separate lentivectors, this gave the ability to use FACS to purify cells expressing neither, one, or both components.
(§2) Thalidomide analogs control degradable CAR T cell activation and effector functions in vitro and in vivo. To test whether degradable CAR T cell activation could be controlled with lenalidomide, 19BBz, 19BBz-dIKZF3, 19BBz-d91.3, and 19BBz-d91.3* Jurkat CAR T cell lines were co-cultured with K562 cells engineered to express the target antigen CD19 (K562-CD19) and 11 lenalidomide concentrations or vehicle control. […] To evaluate whether effector functions of degradable CAR T cells could be controlled with lenalidomide, primary human CAR T cells were generated and cytotoxicity assays performed comparing the conventional 19BBz CAR to the degradable 19BBz-d91.3 CAR in vitro. […] Then cytokine production was analyzed in response to antigen stimulation.
(§3) Primary human CAR-T effector cells were co-cultured with NALM6 target cells engineered to express click beetle green luciferase at the indicated ratios for 16 hours. Luciferase activity was measured with a Synergy Neo2 luminescence microplate reader (Biotek). Cell culture supernatant from these experiments was analyzed for soluble cytokines (Luminex).

NALM6 target cells [2] = experiment: Cytokine production in CAR T:NALM6 co-culture supernatant (Luminex); format: cell-based
Source text: as §1, §2, §3

2FKBP (N+L) Cas9 = experiment: dTAG-induced degradation of FKBP-Cas9 (eGFP disruption, western blotting, degradation kinetics); format: cell-based; conditions: multiple assays
Protocol: Degraders targeting variant Cas9 proteins is explored in the following example. SpCas9 variants were prepared and transfected into several cell lines.
Control of CRIPSR-Cas degradation can control editing outcomes.

[3] = tested on: JeKo-1 mantle cell lymphoma cells; experiment: In vivo tumor control model, mantle cell lymphoma xenograft; conditions: NSG mice engrafted with JeKo-1 cells; no drug
Protocol: (§4) FIG. 14A-14I—OFF-switch degradable CARs can be transiently depleted with pomalidomide and enforce tumor control in vivo. (FIG. 14A) Schematic of luciferase-tagged CAR constructs. […] (FIG. 14C) Summary of BLI 24 hours before, 6 hours after, and 24 hours after pomalidomide. Comparing the d91.3 and d91.3* CARs across each timepoint using two-tailed t-tests yielded p-values of 0.35, 0.003, and 0.14, respectively. (FIG. 14D) BLI representing CAR abundance over time. (FIG. 14E) Experimental design for in vivo tumor control model: NSG mice were injected intravenously with 1e6 GFP+/luciferase+ JeKo-1 tumor cells. At day 0, mice were randomly assigned on the basis of tumor burden to receive 1e6 control T cells (UTD), 19BBz, or 19BBz-d91.3. (FIG. 14F) Average luminescence of whole mice in the 3 groups over time. […] The percentage of JeKo-1 cells (FIG. 14H) and human T cell (FIG. 14I) among mononuclear cells in the bone marrow or spleen at day 35.
Subtle sequence changes to chimeric antigen receptors have been associated with intended and unintended consequences for CAR T cell efficacy and toxicity in clinical trials as well as pre-clinical models (23, 33, 34). Therefore, we determined whether addition of the zinc finger super-degron tag impacts CAR T cell activity in a mantle cell lymphoma xenograft model. We engrafted NSG mice with CD19+ luciferase+ JeKo-1 mantle cell lymphoma cells. […]

[4] = tested on: CAR protein abundance in CAR-Jurkat cells; experiment: Jurkat CAR protein degradation (flow cytometry anti-Myc tag, western blot)
Protocol: CAR-Jurkat cells were treated with lenalidomide or vehicle control and then (FIG. 13B) analyzed by western blot for the specified targets or (FIG. 13C) analyzed by flow cytometry to quantify the CAR protein abundance normalized to vehicle control (anti-Myc tag). (FIG. 13D) CAR-Jurkat cells were co-cultured with K562-CD19 cells and lenalidomide or vehicle control and then analyzed by flow cytometry for the percentage of CD69+ cells. (FIG. 13E) The concentration of IL2 in supernatants from FIG. 13D was measured by ELISA. […] All experiments were performed in triplicate. Error bars indicate standard deviation.
Next, the kinetics of CAR depletion was examined after the addition of lenalidomide. […] We also examined the dynamics of CAR re-synthesis after washout of lenalidomide.
Normalized CAR expression was calculated via subtraction of the MFI of unstained cells and normalization to the signal intensity of vehicle control-treated cells. […] Luciferase-tagged CAR luminescence was measured with an EnVision plate reader (PerkinElmer).

[5] = 25 mg per day dosing; multiple myeloma patients; cited from earlier work
[6] = tested on: NALM6 cells engrafted in NSG mice; experiment: In vivo CAR T cell cytokine release model; conditions: day 5
Source text: To evaluate whether degradable CAR T cell cytokine release could be controlled in vivo, a high-level tumor engraftment model was used to provoke CAR T cell cytokine release. NALM6 cells were engrafted in non-obese diabetic scid gamma (NSG) mice one week before injection of conventional 19BBz CAR T cells, degradable 19BBz-d91.3 CAR T cells, or untransduced control T cells. On days 3-5 after T cell transfer, mice were either left untreated, treated daily, or treated twice daily with pomalidomide, which was used for in vivo experiments because it has a longer in vivo half-life than lenalidomide. On the afternoon of day 5, serum plasma concentrations were measured for a panel of human T cell cytokines (FIG. 14C). IFN-gamma levels were reduced four-fold (p=0.04) with daily and six-fold (p=0.01) with twice-daily pomalidomide treatment. […] Thus, pomalidomide can be used to limit cytokine release in vivo, the major driver of CAR T cell hyperactivation toxicities.

[7] = tested on: Jurkat cells expressing 19BBz-FLuc-d91.3 in NSG mice; experiment: In vivo CAR depletion model (bioluminescent imaging of luciferase-tagged CAR)
Protocol: as §4
As expected, after exposure to lenalidomide, we observed a dose-dependent decrease in luminescence from Jurkat cells expressing degradable but not control luciferase-tagged CARs (FIG. 14A). Applicants then transplanted NSG mice with the engineered T cells. After establishing detectable engraftment by luminescence imaging, we administered a single 10 mg/kg oral pomalidomide dose the following day, and measured luminescence. […]

sCAR-91.3: lenalidomide ON-switch split CAR with dimerization domain from hybrid d913 zinc finger and CRBNΔ3 (FNVLMVHKRSHTGERPLQCEICGFTCRQKGNLLRHIKLHTGEKPFKCHLCNYACQRRDAL; cysteine pairing not given here; also: fragment of split CAR, other chain or arm left off)
fold lower EC50 than sCAR IKZF3 (K562-CD19 cells; lenalidomide, Jurkat T cells exposed to CD19+ target cells): 7 fold
EC50 (K562-CD19 cells; lenalidomide, split CAR-Jurkat cells co-cultured with K562-CD19, read-out: EC50 (percentage of CD69+ cells)): 29.3 nM
killing of NALM6 target cells (NALM6 target cells [1]; 1000 nM lenalidomide, primary split CAR T cells sorted for components A, B): restricted to T cells expressing both halves of sCAR 91.3 in the presence of 1000 nM lenalidomide
IL2 production in co-culture (NALM6 target cells [2]; split CAR primary T cells, NALM6, 1000 nM lenalidomide): required the complete sCAR 91.3 and lenalidomide

CC[C@H](C(=O)N1CCCC[C@H]1C(=O)O[C@H](CCc1ccc(OC)c(OC)c1)c1ccccc1OCC(=O)NCCCCCCCCNc1ccc2c(c1)C(=O)N(C1CCC(=O)NC1=O)C2=O)c1cc(OC)c(OC)c(OC)c1 (stereo partly shown) [dTAG]
concentration sufficient for complete degradation of 2FKBP (N+L) Cas9 (2FKBP (N+L) Cas9): 1 µM

19BBz-d91.3: degradable anti-CD19 CAR (4-1BB, CD3z) with d91.3 super-degron tag (FNVLMVHKRSHTGERPLQCEICGFTCRQKGNLLRHIKLHTGEKPFKCHLCNYACQRRDAL; not fully specified; cysteine pairing not given here)
inhibition of CD69 early activation marker expression (K562-CD19 cells; higher concentrations of lenalidomide, overnight co-culture with K562-CD19): more completely
target cell killing (specific lysis) (NALM6 target cells [1]; 100 nM or 1000 nM lenalidomide, primary human CAR T cells, NALM6): not detected above background
secretion of cytokines reflective of T cell activation (NALM6 target cells [2]; 100 nM lenalidomide, 9:1 CAR T:NALM6): reduced the secretion of all evaluated cytokines
survival, tumor burden (BLI, spleen, bone marrow), T cell persistence versus conventional 19BBz CAR T cells [3]: no significant differences
Half-maximal depletion of the degradable CAR after addition of lenalidomide ([4]; Jurkat cells): ~20 min
Half-maximal recovery of expression after washout of lenalidomide ([4]; Jurkat cells): ~3.6 h
fold lower lenalidomide concentration for depletion than endogenous IKZF3 ([4]; western blot, Jurkat cells): approximately 100 fold
lenalidomide concentration for depletion as fraction of that required to deplete endogenous IKZF3 ([4]; western blot, Jurkat cells): approximately 1/100

Nc1cccc2c1CN(C1CCC(=O)NC1=O)C2=O (stereo not shown) [lenalidomide, reference compound]
maximum plasma concentration [5]: 1.9 µM
t½ of CAR depletion upon addition of lenalidomide ([4]; CAR-Jurkat cells, 95% CI 0.29-0.38): 0.33 h
t½ of CAR re-expression following lenalidomide treatment and drug washout ([4]; CAR-Jurkat cells, 95% CI 1.88-13.6): 3.57 h

Nc1cccc2c1C(=O)N(C1CCC(=O)NC1=O)C2=O (stereo not shown) [pomalidomide]
reduction of serum IFN-gamma levels ([6]; daily 30 mg/kg pomalidomide oral gavage days 3-5, p=0.04): four-fold
reduction of serum IL-2 levels ([6]; daily pomalidomide, p=0.05): four-fold
reduction of serum IFN-gamma levels ([6]; twice-daily 30 mg/kg pomalidomide oral gavage days 3-5, p=0.01): six-fold
reduction of serum IL-2 levels ([6]; twice-daily pomalidomide, p=0.06): not significantly reduced
luminescence of degradable CAR after 24 hours ([7]; 24 hours after single 10 mg/kg oral pomalidomide dose): recovered to levels similar to that of the control CAR
reduction of luminescence from the degradable CAR versus pre-treatment ([7]; six hours after single 10 mg/kg oral pomalidomide dose, p=0.003): 5 fold
